Assay results from BigSolDB 2.1.

Details: 298.15 K

## CCC(C)n1ncn(-c2ccc(N3CCN(c4ccc(OC[C@H]5CO[C@](Cn6cncn6)(c6ccc(Cl)cc6Cl)O5)cc4)CC3)cc2)c1=O (mixture of isomers)
In DMAc
  solubility (mole fraction): 0.0118
In DMF
  solubility (mole fraction): 0.0107
In DMSO
  solubility (mole fraction): 0.00175
In NMP
  solubility (mole fraction): 0.022
In THF
  solubility (mole fraction): 0.00212
In acetone
  solubility (mole fraction): 0.000637
In acetonitrile
  solubility (mole fraction): 7.95e-05
In chloroform
  solubility (mole fraction): 0.0504
In dichloromethane
  solubility (mole fraction): 0.0327
In ethanol
  solubility (mole fraction): 1.91e-05
In isopropanol
  solubility (mole fraction): 2.14e-05
In methanol
  solubility (mole fraction): 3.79e-05
In n-butanol
  solubility (mole fraction): 2.3e-05
In n-propanol
  solubility (mole fraction): 2.05e-05
In transcutol
  solubility (mole fraction): 0.00073
In water
  solubility (mole fraction): 2.43e-07
